{
  "source": "patent US12298319B2",
  "about": "“Method for measuring alpha value of muscarinic M1 receptor positive allosteric modulators” (Takeda Pharmaceutical Company Limited, priority 2017, dated 2025)",
  "key": {"[1]": {"test_system": "Arc mRNA expression in mouse hippocampus", "test": "Arc mRNA expression in hippocampus (RT-PCR, PD marker)", "assay_type": "in vivo", "conditions": "90 min after treatment", "method": "For in vivo pharmacodynamics (PD) marker analysis, mice were sacrificed by decapitation at 90 min after administration of Compound A or Compound B. Hippocampal tissues were isolated from the brain. These tissues were stored at -80° C. until RNA extraction. Total RNA from individual tissues was extracted using QIAzol Lysis Reagent and the RNeasy kit (Quiagen, Hilden, Germany) following the manufacturer's instruction. RT-PCR was carried out using ABI PRISM 7900HT sequence detection system (Life Technologies, Bedford, MA) and TagMan reagents (Eurogentec, Seraing, Belgium). RNA quantities were normalized using glyceraldehyde-3-phosphate dehydrogenase (GAPDH) mRNA transcripts according to manufacturer's instruction. The following primers were used for mouse Arc analysis: forward primer, [NT] ID NO:3); reverse primer, [NT] ID NO:4), TagMan probe, [NT] ID NO:5). The primers used for mouse Gapdh analysis were TagMan Rodent GAPDH Control Reagent, VIC probe, purchased from ABI (Applied biosystems-Life Technologies, Waltham, MA)."}, "[2]": {"test_system": "scopolamine-induced cognitive deficits in mice", "test": "Y-maze task, scopolamine-induced cognitive deficits", "assay_type": "in vivo, mouse", "conditions": "for scopolamine-induced cognitive deficits in Y-maze task: 5-min measurement", "method": "The Y-maze apparatus has a three-arm maze with equal angles between all arms and made of black colored acrylic. Each arm consisted of 40 cm length, 4 cm width, and 12 cm walls. The Y-maze was located in a sound-attenuated room and illuminated at 10 lux. Compound B (10 or 30 mg/kg) and Compound A (1, 3 or 10 mg/kg) were pretreated orally at 60 min prior to the testing. After 30 min, memory impairment was induced by administering scopolamine (0.3 or 1 mg/kg, as hydrobromide salt, s.c.). At 30 min after the administration of scopolamine, mice were placed in the Y-maze and then spontaneous alternation performance was assessed visually for 5 to 8 min. Each animal underwent one trial. A mouse was considered to have entered an arm when all four paws were positioned in one third of the arm runway from the center of the Y maze. Alternations were defined as successive entries into each of the three arms on overlapping triplet sets, and alternation rate, expressed as a percentage, referred to the ratio of actual (total alternations) to possible alternations (total arm entries−2)×100."}, "[3]": {"test": "Pharmacokinetics after oral administration to mice", "assay_type": "in vivo, mouse", "conditions": "for Cmax / Tmax / AUC(0-t): mouse, plasma, po; for AUC(0-t): read-out: AUC0-4 h", "method": "Plasma concentration of Compound B at 30 and 1000 mg/kg. Plasma samples were collected at 0.5, 1, 2, 4 and 6 h after oral treatment. Results represent the mean. n=3 per group."}, "M2R": {"molecular_target": "T1, M2R (Homo sapiens, UniProt P08172)", "T1 sequence (P08172 1-466)": "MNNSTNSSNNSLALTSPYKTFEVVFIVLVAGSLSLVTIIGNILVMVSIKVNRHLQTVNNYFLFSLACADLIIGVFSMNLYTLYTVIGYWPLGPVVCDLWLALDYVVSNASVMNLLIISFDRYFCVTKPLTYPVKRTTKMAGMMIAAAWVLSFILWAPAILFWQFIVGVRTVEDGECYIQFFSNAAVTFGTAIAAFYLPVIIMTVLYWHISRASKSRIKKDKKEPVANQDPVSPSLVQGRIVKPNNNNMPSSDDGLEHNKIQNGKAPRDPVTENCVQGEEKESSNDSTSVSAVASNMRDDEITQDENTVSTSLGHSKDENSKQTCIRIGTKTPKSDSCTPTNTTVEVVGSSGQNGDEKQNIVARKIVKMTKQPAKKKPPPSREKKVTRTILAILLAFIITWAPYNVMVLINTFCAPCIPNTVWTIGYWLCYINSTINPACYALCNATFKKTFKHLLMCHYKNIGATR", "test": "Ca2+ flux assay in CHO-K1 cells expressing human M2R", "assay_type": "cell-based", "parameters": "expressed in transfected cells; host or cells: CHO-K1", "conditions": "read-out: IP for M2R"}, "isolated mouse ileum": {"test_system": "isolated mouse ileum", "test": "In vitro Magnus method, spontaneous ileum motility", "conditions": "cumulative concentrations", "method": "After overnight fasting, mice were sacrificed. The ileum was quickly dissected out and suspended in ice-cold Krebs solution with the following composition (in mM): NaCl, 120.7; KCl, 5.9; CaCl2, 2.5; MgCl2, 1.2; NaHCO3, 15.5; NaH2PO4, 1.2; and glucose, 11.5. Longitudinal segments of ileum (10-15 mm long) were detached of mesentery and adipose tissue, and mounted in organ baths containing 10 mL of Krebs solution aerated with 95% O2/5% CO2. Bath temperature was maintained at 37° C. The isolated ileum was given a passive load of 0.5 g. The contractile response of the isolated ileum was continuously recorded with isometric transducer (MLT050/A, ADInstruments, New South Wales, Australia) and recorder (PowerLab 8/30 ML870 and Octal Bridge Amp ML228, ADInstruments). […]\nThe contraction was measured as the maximum strength from the baseline. The effects of experimental substances on the maximum contraction were measured. […] The effect of each concentration of the compounds on ileum spontaneous contraction induced was calculated from the average value of 6 responses of the maximum strength. Then the ileum contractile response was expressed as a ratio of the mean maximum contraction to that obtained with the pre-treated DMSO (solvent). […] Due to very small size of relaxations, the effects of the compounds on them was not be analyzed."}},
  "note": "Like-named read-outs stand apart in the source and are kept apart here.",
  "data": [
    {"smiles": "Cn1ccc(-c2ccc(CN3Cc4cccc(O[C@H]5CCCC[C@@H]5O)c4C3=O)cc2)n1", "note": "[Compound A, 7-(((1S,2S)-2-hydroxycyclohexyl)oxy)-2-(4-(1-methyl-1H-pyrazol-3-yl)benzyl)isoindolin-1-one]", "values": [
      {"measurement": "Arc mRNA expression level in mouse hippocampus", "setting": "[1]; 30 mg/kg p.o.", "value": "significant increase"},
      {"measurement": "Arc mRNA expression level in mouse hippocampus", "setting": "[1]; 3-30 mg/kg p.o.", "value": "enhanced the expression level of Arc mRNA in a dose-dependent manner"},
      {"measurement": "scopolamine-induced cognitive deficits in Y-maze task", "setting": "[2]; 10 mg/kg p.o.", "value": "trends to improve"},
      {"measurement": "scopolamine-induced decrease in spontaneous alternation ratio in Y-maze task", "setting": "[2]; 10 mg/kg p.o., 8 min measurement", "value": "significantly ameliorated"}
    ]},
    {"smiles": "Cn1cc(-c2ccc(CN3Cc4cccc(Oc5c(F)cccc5C#N)c4C3=O)cc2)cn1", "note": "[Compound B, 3-fluoro-2-((2-(4-(1-methyl-1H-pyrazol-4-yl)benzyl)-3-oxo-2,3-dihydro-1H-isoindol-4-yl)oxy)benzonitrile]", "values": [
      {"measurement": "increase in Arc mRNA expression level in mouse hippocampus", "setting": "[1]; 10-100 mg/kg p.o.", "value": "about 2 fold"},
      {"measurement": "scopolamine-induced cognitive deficits in Y-maze task", "setting": "[2]; 30 mg/kg p.o.", "value": "significantly ameliorated"},
      {"measurement": "Cmax", "setting": "[3]; 30 mg/kg p.o.", "value": 0.27, "unit": "µg/mL"},
      {"measurement": "Tmax", "setting": "[3]; 30 mg/kg p.o.", "value": 2, "unit": "h"},
      {"measurement": "AUC(0-t)", "setting": "[3]; 30 mg/kg p.o.", "value": 0.8, "unit": "µg·h/mL"},
      {"measurement": "Cmax", "setting": "[3]; 1000 mg/kg p.o.", "value": 0.97, "unit": "µg/mL"},
      {"measurement": "Tmax", "setting": "[3]; 1000 mg/kg p.o.", "value": 1.7, "unit": "h"},
      {"measurement": "AUC(0-t)", "setting": "[3]; 1000 mg/kg p.o.", "value": 3.02, "unit": "µg·h/mL"},
      {"measurement": "plasma concentration at 1000 mg/kg relative to 30 mg/kg", "setting": "[3]; p.o.", "value": 3.6, "unit": "fold"}
    ]},
    {"smiles": "Cn1cc(-c2ccc(Cc3cc4c(=O)n([C@H]5CCCC[C@@H]5O)cnc4c4ccccc34)cn2)cn1", "note": "[Compound C, 3-((1S,2S)-2-hydroxycyclohexyl)-6-((6-(1-methyl-1H-pyrazol-4-yl)pyridin-3-yl)methyl)benzo[h]quinazoline-4(3H)-one, reference compound]", "values": [
      {"measurement": "EC50", "setting": "M2R", "value": "> 1", "unit": "µM"},
      {"measurement": "spontaneous ileum motility", "setting": "isolated mouse ileum", "value": "strengthened the spontaneous ileum motility in a concentration-dependent manner"}
    ]},
    {"smiles": "Cc1c(Cc2ccc(-n3cccn3)cc2)cc2c(c1F)CN([C@H]1COCC[C@@H]1O)C2=O", "note": "[Compound D, 4-fluoro-2-[(3S,4S)-4-hydroxytetrahydro-2H-pyran-3-yl]-5-methyl-6-[4-(1H-pyrazol-1-yl)benzyl]-2,3-dihydro-1H-isoindol-1-one]", "values": [
      {"measurement": "EC50", "setting": "M2R", "value": "> 10", "unit": "µM"},
      {"measurement": "spontaneous ileum motility", "setting": "isolated mouse ileum", "value": "lower impact on ileum motility"}
    ]}
  ]
}
